SMILES strings stand for the structures. Where two headings read alike, the source gives them in different places.

Data set [1] in a line: photoredox thiol-yne dihydrothiolation of acetylene by dithiol ([1+1] macrocyclisation, forms S-CH2CH2-S bridge); [Ir(d(tBu)(CF3)ppy)2(dtbbpy)]Cl 1 mol%, DIPEA 1.5 equiv, acetylene balloon, blue LEDs 455 nm. The note with it: the molecule shown is the open-chain precursor, DMF/H2O 50:1, 50.0 mM, 25.0 °C.
The conditions of data set [2]: the molecule shown is the open-chain precursor.

As to `O=C(OCCCCCCS)C12CC3CC(C1)CC(C(=O)OCCCCCCS)(C3)C2` [31], the ring closure, isolated yield in data set [1] (23-membered ring, 12.0 h) came out at 32%.

On to `O=C(OCCCCCCS)[C@H]1CC[C@H](C(=O)OCCCCCCS)CC1` [29 (trans)], for which, in data set [1] (24-membered ring, 12.0 h), the ring closure, isolated yield stood at 26%.

For `CC(COC(=O)CCS)COC(=O)CCS` [7], in data set [1] (15-membered ring, 12.0 h), the ring closure, isolated yield is 27%.

As for `SCCCS` [54 substrate (only [2+2])], the ring closure, isolated yield in data set [1] (7-membered ring, 12.0 h) was found to be 0%.

For `SCCOCCOCCS` [62 (dimer 61)], the ring closure, isolated yield in data set [1] (12-membered ring, 12.0 h) was 42%.

Take `O=C(CCS)OCCOCCOC(=O)CCS` [23]: the ring closure, isolated yield in data set [1] (17-membered ring, 12.0 h) was found to be 29%.

On to `O=C(CCCCCCC(=O)OCCS)OCCS` [13], for which, in data set [1] (18-membered ring, 12.0 h), the ring closure, isolated yield was determined as 28%.

`O=C(CCS)OCCOC(=O)CCS` [5]: in data set [1] (14-membered ring, 12.0 h), the ring closure, isolated yield came to 42%.

Regarding `SCCCCCCCCCCS` [60 substrate (only [2+2])], the ring closure, isolated yield in data set [1] (14-membered ring, 12.0 h) is 0%.

Regarding `CC(CC(C)OC(=O)CCS)OC(=O)CCS` (racemic) [8 (+/-)], the ring closure, isolated yield in data set [1] (15-membered ring, 12.0 h) turned out to be 33%.

With `O=C(CCS)OCCCCCCCCCCOC(=O)CCS` [17], the ring closure, isolated yield in data set [1] (22-membered ring, 12.0 h) worked out at 20%.

Regarding `O=C(OCCCCCCS)C12CCC(C(=O)OCCCCCCS)(CC1)CC2` [30], in data set [1] (24-membered ring, 12.0 h), the ring closure, isolated yield was found to be 28%.

As to `O=C(CCS)OCCCCCCCCCCCCOC(=O)CCS` [18], the ring closure, isolated yield in data set [1] (24-membered ring, 12.0 h) turned out to be 25%.

Consider `SCCCCCS` [56 substrate (only [2+2])], for which, in data set [1] (9-membered ring, 12.0 h), the ring closure, isolated yield is 0%.

Regarding `SCCCCCCCCS` [58 substrate (only [2+2])], the ring closure, isolated yield in data set [1] (12-membered ring, 12.0 h) came to 0%.

As to `O=C(OCCCCCCS)C(F)(F)C(F)(F)C(=O)OCCCCCCS` [20], the ring closure, isolated yield in data set [1] (22-membered ring, 12.0 h) came out at 33%.

Regarding `O=C(CCS)OCCCOc1ccc2ccc(OCCCOC(=O)CCS)cc2c1` [39], in data set [1] (25-membered ring, 12.0 h), the ring closure, isolated yield was 31%.

`O=C(COc1ccccc1OCC(=O)OCCCCCCS)OCCCCCCS` [35]: the ring closure, isolated yield in data set [1] (26-membered ring, 12.0 h) turned out to be 24%.

Take `O=C(CCS)OCCOc1ccc(OCCOC(=O)CCS)cc1` [38]: in data set [1] (22-membered ring, 12.0 h), the ring closure, isolated yield worked out at 22%.

Turning to `CN(CC(=O)OCCCCCCS)CC(=O)OCCCCCCS` [28], the ring closure, isolated yield in data set [1] (23-membered ring, 12.0 h) was found to be 24%.

On to `SCCS` [52 substrate (only [2+2])], for which the ring closure, isolated yield in data set [1] (6-membered ring, 12.0 h) stood at 0%.

For the compound `O=C(CCS)OCCOCCOCCOCCOC(=O)CCS` [25], the ring closure, isolated yield in data set [1] (23-membered ring, 12.0 h) was 27%.

Take `O=C(CCS)OCCCCCCOC(=O)CCS` [12]: the ring closure, isolated yield in data set [1] (18-membered ring, 12.0 h) was 23%.

Take `O=C(CCS)OCCN1CCN(CCOC(=O)CCS)CC1` [32]: in data set [1] (20-membered ring, 12.0 h), the ring closure, isolated yield is 21%.

Turning to `CC(C)(COC(=O)CCS)COC(=O)CCS` [9], in data set [1] (15-membered ring, 12.0 h), the ring closure, isolated yield turned out to be 32%.

With `SCCCCCCCCOc1ccc2ccccc2c1-c1c(OCCCCCCCCS)ccc2ccccc12` [46 ((R)-BINOL, axial stereo not in SMILES)], the ring closure, isolated yield in data set [1] (26-membered ring, 12.0 h) came out at 28%.

With `O=C(CCS)OCc1cccc(COC(=O)CCS)n1` [40], in data set [1] (17-membered ring, 12.0 h), the ring closure, isolated yield was 32%.

On to `SCCOCCS` [64 (dimer 63)], for which, in data set [1] (9-membered ring, 12.0 h), the ring closure, isolated yield is 23%.

`O=C(CCS)OCc1cccc(COC(=O)CCS)c1` [36]: the ring closure, isolated yield in data set [1] (17-membered ring, 12.0 h) was 37%.

Regarding `SCCSCCCSCCS` [66 (dimer 65)], in data set [1] (13-membered ring, 12.0 h), the ring closure, isolated yield amounted to 17%.

`SCCCCCCCCCS` [59 substrate (only [2+2])]: the ring closure, isolated yield in data set [1] (13-membered ring, 12.0 h) stood at 0%.

On to `OC(CS)C(O)CS` (stereo not shown) [53 substrate (only [2+2])], for which, in data set [1] (8-membered ring, 12.0 h), the ring closure, isolated yield is 0%.

As for `O=C(CCS)OCCCCCCCCCCCCCCOC(=O)CCS` [19], the ring closure, isolated yield in data set [1] (26-membered ring, 12.0 h) was found to be 21%.

Take `O=C(CCS)OCCCCCCOc1ccc2ccccc2c1-c1c(OCCCCCCOC(=O)CCS)ccc2ccccc12` [48 ((R)-BINOL, axial stereo not in SMILES)]: the ring closure, isolated yield in data set [1] (30-membered ring, 12.0 h) turned out to be 26%.

`O=C(CCS)OCCOCCOCCOCCOCCOCCOCCOCCOC(=O)CCS` [26]: in data set [1] (35-membered ring, 12.0 h), the ring closure, isolated yield was 18%.

Take `O=C(CCS)O[C@H]1CCCC[C@@H]1OC(=O)CCS` [49 (1S,2S per text; SI product procedure names 1R,2R)]: in data set [1] (14-membered ring, 12.0 h), the ring closure, isolated yield came out at 38%.

For `C[C@H](S)C(=O)NCC(=O)OCCCCCCS` [50 (S per text; SI also names R)], the ring closure, isolated yield in data set [1] (16-membered ring, 12.0 h) worked out at 19%.

As for `O=C(OCCOc1ccc(OCCOC(=O)c2ccccc2S)cc1)c1ccccc1S`, in data set [1] (22-membered ring), the ring closure, isolated yield was found to be 0%.

As to `O=C(CCS)OCc1ccc(COC(=O)CCS)o1` [41], the ring closure, isolated yield in data set [1] (17-membered ring, 12.0 h) was determined as 15%.

Regarding `SCCCCCCOc1ccc2ccccc2c1-c1c(OCCCCCCS)ccc2ccccc12` [44 ((R)-BINOL, axial stereo not in SMILES)], the ring closure, isolated yield in data set [1] (22-membered ring, 12.0 h) stood at 35%.

For the compound `O=C(CCS)OCCCCCCCOC(=O)CCS` [14 (=3)], the ring closure, isolated yield in data set [1] (19-membered ring, 12.0 h) worked out at 26%.

In data set [2], `O=C(OCCCCCCS)[c-]1cccc1.O=C(OCCCCCCS)[c-]1cccc1.[Fe+2]` [42 (ferrocene)] had a ring closure, isolated yield of 8%.

As for `O=C(OCCCCCCS)c1ccccc1S` [33], in data set [1] (14-membered ring, 12.0 h), the ring closure, isolated yield is 25%.

On to `SCCCOc1ccc2ccccc2c1-c1c(OCCCS)ccc2ccccc12` [43 ((R)-BINOL, axial stereo not in SMILES)], for which the ring closure, isolated yield in data set [1] (16-membered ring, 12.0 h) amounted to 40%.

For the compound `O=C(CCS)OCCCCCCCCOC(=O)CCS` [15], the ring closure, isolated yield in data set [1] (20-membered ring, 12.0 h) came to 22%.

For `O=C(CCS)OCCOCCOCCOC(=O)CCS` [24], the ring closure, isolated yield in data set [1] (20-membered ring, 12.0 h) came to 28%.

On to `O=C(CCS)OCCCOC(=O)CCS` [6], for which the ring closure, isolated yield in data set [1] (15-membered ring, 12.0 h) is 30%.

Turning to `O=C(CCS)OCCN(CCOC(=O)CCS)c1ccccc1` [27], the ring closure, isolated yield in data set [1] (17-membered ring, 12.0 h) was 38%.

Regarding `O=C(CCS)OCCCCCCCCCOC(=O)CCS` [16], the ring closure, isolated yield in data set [1] (21-membered ring, 12.0 h) is 24%.

`O=C(CCS)OCCCOc1ccc2ccccc2c1-c1c(OCCCOC(=O)CCS)ccc2ccccc12` [45 ((R)-BINOL, axial stereo not in SMILES)]: the ring closure, isolated yield in data set [1] (24-membered ring, 12.0 h) amounted to 30%.

`O=C(CCS)OCCCCOC(=O)CCS` [10]: the ring closure, isolated yield in data set [1] (16-membered ring, 12.0 h) was 36%.

Consider `O=C(CCS)OCCCCCCOc1cccc2c1C1(CC2)CCc2cccc(OCCCCCCOC(=O)CCS)c21` (single isomer, unassigned) [51 ((R)-spirobiindane, stereo not in SMILES)], for which the ring closure, isolated yield in data set [1] (31-membered ring, 12.0 h) is 21%.

Regarding `O=C(CCS)OCc1ccc(COC(=O)CCS)cc1` [37], the ring closure, isolated yield in data set [1] (18-membered ring, 12.0 h) was determined as 8%.

With `O=C(CS)OCCCCOC(=O)CS` [4], in data set [1] (14-membered ring, 12.0 h), the ring closure, isolated yield worked out at 32%.

On to `SCCCCCCS` [57 substrate (only [2+2])], for which the ring closure, isolated yield in data set [1] (10-membered ring, 12.0 h) turned out to be 0%.

`O=C(CCS)OCCCCCOC(=O)CCS` [11]: the ring closure, isolated yield in data set [1] (17-membered ring, 12.0 h) came out at 38%.

As for `O=C(CCS)OCc1ccccc1COC(=O)CCS` [34], the ring closure, isolated yield in data set [1] (16-membered ring, 12.0 h) worked out at 39%.

As for `O=C(OCCCCCCS)C(F)(F)C(F)(F)C(F)(F)C(F)(F)C(=O)OCCCCCCS` [21], the ring closure, isolated yield in data set [1] (24-membered ring, 12.0 h) came out at 31%.

As for `O=C(CCS)OCCCCCOc1ccc2ccccc2c1-c1c(OCCCCCOC(=O)CCS)ccc2ccccc12` [47 ((R)-BINOL, axial stereo not in SMILES)], in data set [1] (28-membered ring, 12.0 h), the ring closure, isolated yield came to 29%.

`SCCCCS` [55 substrate (only [2+2])]: in data set [1] (8-membered ring, 12.0 h), the ring closure, isolated yield was 0%.

For the compound `O=C(COCC(=O)OCCCCCCS)OCCCCCCS` [22], the ring closure, isolated yield in data set [1] (23-membered ring, 12.0 h) came to 23%.

These data come from paper PMC9411599.
